We go through 14 molecules from PubChem BioAssay (NCI).

What all share (experiment): inhibition of tumour cell growth, NCI panel, 48 h
The subject of assay [1] is OVCAR-3 ovarian.
The test system of assay [2] is NCI/ADR-RES ovarian.
Assay [3] has as its system SN12C renal.
In assay [4] the test system is OVCAR-4 ovarian.
Assay [5] relates to HOP-92 NSCLC.
Assay [6] relates to SF-268 CNS.
The test system of assay [7] is HT29 colon.
In assay [8] the test system is SF-295 CNS.
Assay [9] has as its system NCI-H460 lung.
Assay [10] deals with HOP-62 NSCLC.

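How tested: cells in 96-well plates exposed to compound for 48 hours at five concentrations. TGI marks complete inhibition of growth.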

For the molecule `COc1ccc(OC)c(NCC(=O)Nn2cnc3ccc(S(=O)(=O)Nc4cc(OC)ccc4OC)cc3c2=O)c1`, the TGI in [1], in assay [2], in assay [3], in assay [4], in assay [5] and in assay [6] was more than 100 µM throughout. In addition, the TGI in [7], in assay [8], in [9] and in [10] was more than 100 µM in each case.
Turning to `CC(O)C1(CNc2cc(Cl)nc(N)n2)CCCCC1` (stereo not drawn), the TGI in assay [1], in assay [2], in [3], in [4], in assay [5] and in [6] was more than 100 µM in each case. Moreover, the TGI in assay [7], in assay [8], in assay [9] and in assay [10] was more than 100 µM throughout.
As to `CCOP(=O)(OCC)/C(C#N)=C/c1cccn1C(C)C`, the TGI in assay [1], in assay [2], in assay [3], in assay [5], in assay [6] and in [7] was more than 100 µM throughout. Also, the TGI in [8], in assay [9] and in assay [10] was more than 100 µM throughout.
Consider `CCNC(=O)c1cc(Cl)ccc1NC(=O)C12CC3CC(CC(C3)C1)C2`, for which the TGI in assay [1], in assay [2], in assay [3], in assay [4], in [5] and in [6] was more than 100 µM throughout. Moreover, the TGI in assay [7] was 37.3 µM; in assay [8], more than 100 µM; in [9] it was more than 100 µM; in [10], more than 100 µM.
In the case of `OC1c2ccccc2CCC1CN1CCN(CCOC(c2ccc(F)cc2)c2ccc(F)cc2)CC1` (stereo not drawn), the TGI in assay [1] was 42.6 µM; in assay [2], 35.3 µM; in [3] it was 27.3 µM; in assay [4], more than 100 µM; in assay [5], 24.4 µM; in assay [6], 39 µM. Also, the TGI in [8] turned out to be 46.1 µM; in [9], 48 µM; in assay [10], 60.5 µM.
Regarding `COc1cc(C2c3cc4c(cc3[C@@H](Nc3cccc(CO)c3)C3COC(=O)[C@H]23)OCO4)cc(OC)c1O` (stereo partly drawn), the TGI in assay [1] came out at 13.4 µM; in [2], 59.2 µM; in [3] it was 6.11 µM; in [4], 30.4 µM; in [5] it was 13.3 µM; in assay [6], 14.5 µM. The TGI was found to be 5.15 µM in assay [7], 5.05 µM in assay [8], 1.75 µM in assay [9] and 0.556 µM in [10].
Take `N#CC1(C#N)NC(c2ccccc2)C(C#N)(C#N)NC1c1ccccc1` (stereo not drawn): the TGI in [1], in assay [2], in assay [3], in [4], in [5] and in assay [6] was more than 100 µM in each case. Also, the TGI in assay [7], in assay [8], in assay [9] and in [10] was more than 100 µM throughout.
On to `c1cc(-c2ccc(-c3ccc(-c4ccc(-c5ccncc5)o4)cc3)o2)ccn1`, for which the TGI in [1] is 63.8 µM; in [2] it was more than 100 µM; in [3], 45.5 µM; in [4], 65.4 µM; in assay [5], 83.7 µM; in [6], 38.1 µM. In addition, the TGI in assay [7] is 44.7 µM; in assay [8], 30.9 µM; in [9], 35.3 µM; in assay [10], 55.3 µM.
Consider `CCOC(=O)c1cc(-n2nnc3ccccc32)cn1C`, for which the TGI in assay [1], in assay [2], in assay [3], in assay [4], in assay [5] and in assay [6] was more than 10 µM throughout. Also, the TGI in assay [7], in [8], in assay [9] and in [10] was more than 10 µM each time.
In the case of `COC(=O)C1CCN(C(=O)OC(C)(C)C)CC1`, the TGI in assay [1], in assay [2], in assay [3], in assay [4], in [5] and in assay [6] was more than 100 µM each time. Also, the TGI in assay [7], in [8], in assay [9] and in assay [10] was more than 100 µM in each case.
Turning to `COC(=O)/C=C\C(C#N)(C#N)N=Cc1cccc(OC)c1`, the TGI in [1] came out at 26.1 µM; in [2] it was 35.7 µM; in [3] it was 27.1 µM; in assay [4], 18.8 µM; in [5], 7.29 µM; in assay [6] it was 33.4 µM. The TGI in assay [7] was 10.5 µM; in [8] it was 53.8 µM; in assay [9] it was 40.8 µM; in assay [10], more than 62.1 µM.
In the case of `CC(CC(N)C(=O)O)C(=O)O` (stereo not drawn), the TGI in [1], in assay [2], in assay [3], in assay [4], in assay [5] and in [6] was more than 100 µM in each case. Further, the TGI in [7], in [8], in [9] and in [10] was more than 100 µM throughout.
For the molecule `Cc1nc(SCC(=O)Nc2ccc(Cl)cc2)c2sc(=S)n(-c3ccccc3)c2n1`, the TGI in assay [1], in assay [2], in assay [3], in assay [4], in [5] and in assay [6] was more than 10 µM throughout. The TGI in [7], in assay [8], in assay [9] and in assay [10] was more than 10 µM in each case.
With `CN(CC(=O)O)c1ncc2c(n1)C=CCC2`, the TGI in assay [1], in [2], in assay [3], in assay [4], in assay [5] and in assay [6] was more than 100 µM in each case. Also, the TGI in assay [7], in assay [8], in assay [9] and in assay [10] was more than 100 µM each time.
